Measurements: US20260240976A1, “T[…] VACCINES BASED ON VALIDATED TARGET EPITOPES” (Deutsches Krebsforschungszentrum Stiftung des öffentlichen …, priority 2023, published 2026)

system: short-term antigen-specific T cell lines generated from PBMCs; assay: Interferon-γ ELISpot assay on short-term antigen-specific T cell lines; format: cell-based, human; settings: HLA restriction A01; on ELISpot: Immungenicity of the peptide shown by IFN-gamma ELISPOT analysis: key: +: ELISPOT: Immungenicity of the peptide shown by IFN-gamma ELISPOT analysis; +*: *highlights data from published resources; *highlights data from published resources

Substance	ELISpot: Immungenicity of the peptide shown by IFN-gamma ELISPOT analysis
8 (SKISEYRHYCY; Human papillomavirus 16) [compound 8]	+
9 (SEYRHYCYSLY; Human papillomavirus 16) [compound 9]	+
10 (ETTDLYCY; Human papillomavirus 16) [compound 10]	+
132 (TTDLYCYEQL; Human papillomavirus 16) [compound 132]	+
133 (SEYRHYCY; Human papillomavirus 16) [compound 133]	+
134 (IHEIILECVY; Human papillomavirus 16) [compound 134]	+

same assay, conditions: HLA restriction A02

Substance	ELISpot: Immungenicity of the peptide shown by IFN-gamma ELISPOT analysis
47 (KLPQLCTELQT; Human papillomavirus 16) [compound 47]	+
48 (ELQTTIHDI; Human papillomavirus 16) [compound 48]	+
51 (TLHEYMLDLQP; Human papillomavirus 16) [compound 51]	+

same assay, conditions: HLA restriction A03

Substance	ELISpot: Immungenicity of the peptide shown by IFN-gamma ELISPOT analysis
53 (CVYCKQQLLR; Human papillomavirus 16) [compound 53]	+
54 (TTLEQQYNK; Human papillomavirus 16) [compound 54]	+
67 (MFQDPQERPRK; Human papillomavirus 16) [compound 67]	+
69 (AVCDKCLK; Human papillomavirus 16) [compound 69]	+
70 (KCLKFYSKI; Human papillomavirus 16) [compound 70]	+
71 (KFYSKISEY; Human papillomavirus 16) [compound 71]	+
72 (KFYSKISEYR; Human papillomavirus 16) [compound 72]	+
76 (LIRCINCQK; Human papillomavirus 16) [compound 76]	+
77 (RCINCQKPLCP; Human papillomavirus 16) [compound 77]	+
78 (KQRFHNIRGR; Human papillomavirus 16) [compound 78]	+
136 (GTTLEQQYNK; Human papillomavirus 16) [compound 136]	+

same assay, conditions: HLA restriction A11

Substance	ELISpot: Immungenicity of the peptide shown by IFN-gamma ELISPOT analysis
68 (YAVCDKCLKFY; Human papillomavirus 16) [compound 68]	+
79 (LGIVCPICSQK; Human papillomavirus 16) [compound 79]	+

same assay, conditions: HLA restriction A24

Substance	ELISpot: Immungenicity of the peptide shown by IFN-gamma ELISPOT analysis
71 (KFYSKISEY; Human papillomavirus 16) [compound 71]	+
93 (YSLYGTTL; Human papillomavirus 16) [compound 93]	+
94 (HLDKKQRFHNI; Human papillomavirus 16) [compound 94]	+
95 (DKKQRFHN; Human papillomavirus 16) [compound 95]	+
96 (AHYNIVTF; Human papillomavirus 16) [compound 96]	+
138 (HYNIVTFC; Human papillomavirus 16) [compound 138]	+

same assay, conditions: HLA restriction B07

Substance	ELISpot: Immungenicity of the peptide shown by IFN-gamma ELISPOT analysis
104 (RPRKLPQLCT; Human papillomavirus 16) [compound 104]	+
105 (KPLCDLLI; Human papillomavirus 16) [compound 105]	+
106 (RCMSCCRSSR; Human papillomavirus 16) [compound 106]	+
142 (CPDEKQRHL; Human papillomavirus 16) [compound 142]	+
143 (LPQLCTELQT; Human papillomavirus 16) [compound 143]	+

same assay, conditions: HLA restriction B15

Substance	ELISpot: Immungenicity of the peptide shown by IFN-gamma ELISPOT analysis
9 (SEYRHYCYSLY; Human papillomavirus 16) [compound 9]	+
12 (TLHEYMLDL; Human papillomavirus 16) [compound 12]	+
81 (RAHYNIVTF; Human papillomavirus 16) [compound 81]	+
111 (QQLLRREVY; Human papillomavirus 16) [compound 111]	+
118 (LLRREVYDFAF; Human papillomavirus 16) [compound 118]	+
119 (LRREVYDFAF; Human papillomavirus 16) [compound 119]	+
120 (IVYRDGNPYAV; Human papillomavirus 16) [compound 120]	+
121 (AVCDKCLKF; Human papillomavirus 16) [compound 121]	+
122 (CLKFYSKISEY; Human papillomavirus 16) [compound 122]	+
123 (FYSKISEY; Human papillomavirus 16) [compound 123]	+
124 (YSKISEYRHY; Human papillomavirus 16) [compound 124]	+
125 (SKISEYRHY; Human papillomavirus 16) [compound 125]	+
126 (SEYRHYCY; Human papillomavirus 16) [compound 126]	+
127 (QQYNKPLCDL; Human papillomavirus 16) [compound 127]	+
128 (CQKPLCPEE; Human papillomavirus 16) [compound 128]	+
129 (KQRHLDKKQRF; Human papillomavirus 16) [compound 129]	+
130 (KQRFHNIRGRW; Human papillomavirus 16) [compound 130]	+
131 (GQAEPDRAH; Human papillomavirus 16) [compound 131]	+

same assay, conditions: comparison among the peptides in Table 1

Substance	rates of immunoactivation in PBMC samples, CD8 T cell responses and/or numbers of HPV16 positive cell lines presenting the peptide as HLA-complexes
1 (ISEYRHYCY; Human papillomavirus 16) [compound 1]	highest rates of immunoactivation in PBMC samples, to induce the strongest CD8 T cell responses, and/or shown to be presented as HLA-complexes by the highest numbers of HPV16 positive cell lines
2 (HGDTPTLHEY; Human papillomavirus 16) [compound 2]	highest rates of immunoactivation in PBMC samples, to induce the strongest CD8 T cell responses, and/or shown to be presented as HLA-complexes by the highest numbers of HPV16 positive cell lines
11 (TIHDIILECV; Human papillomavirus 16) [compound 11]	highest rates of immunoactivation in PBMC samples, to induce the strongest CD8 T cell responses, and/or shown to be presented as HLA-complexes by the highest numbers of HPV16 positive cell lines
13 (YMLDLQPET; Human papillomavirus 16) [compound 13]	highest rates of immunoactivation in PBMC samples, to induce the strongest CD8 T cell responses, and/or shown to be presented as HLA-complexes by the highest numbers of HPV16 positive cell lines
18 (RTLEDLLMGT; Human papillomavirus 16) [compound 18]	highest rates of immunoactivation in PBMC samples, to induce the strongest CD8 T cell responses, and/or shown to be presented as HLA-complexes by the highest numbers of HPV16 positive cell lines
53 (CVYCKQQLLR; Human papillomavirus 16) [compound 53]	highest rates of immunoactivation in PBMC samples, to induce the strongest CD8 T cell responses, and/or shown to be presented as HLA-complexes by the highest numbers of HPV16 positive cell lines
54 (TTLEQQYNK; Human papillomavirus 16) [compound 54]	highest rates of immunoactivation in PBMC samples, to induce the strongest CD8 T cell responses, and/or shown to be presented as HLA-complexes by the highest numbers of HPV16 positive cell lines
80 (VYCKQQLL; Human papillomavirus 16) [compound 80]	highest rates of immunoactivation in PBMC samples, to induce the strongest CD8 T cell responses, and/or shown to be presented as HLA-complexes by the highest numbers of HPV16 positive cell lines
81 (RAHYNIVTF; Human papillomavirus 16) [compound 81]	highest rates of immunoactivation in PBMC samples, to induce the strongest CD8 T cell responses, and/or shown to be presented as HLA-complexes by the highest numbers of HPV16 positive cell lines
82 (EYRHYCYSL; Human papillomavirus 16) [compound 82]	highest rates of immunoactivation in PBMC samples, to induce the strongest CD8 T cell responses, and/or shown to be presented as HLA-complexes by the highest numbers of HPV16 positive cell lines
98 (TPTLHEYML; Human papillomavirus 16) [compound 98]	highest rates of immunoactivation in PBMC samples, to induce the strongest CD8 T cell responses, and/or shown to be presented as HLA-complexes by the highest numbers of HPV16 positive cell lines
